Counter-ions that a name gives are not always drawn.
Target: T1, mouse glycolate oxidase (mGO) (Mus musculus, UniProt Q9WU19)
T1 construct: His6 (N); made in house; host or cells: E. coli BL21 (DE3)
T1 sequence (Q9WU19 1-370): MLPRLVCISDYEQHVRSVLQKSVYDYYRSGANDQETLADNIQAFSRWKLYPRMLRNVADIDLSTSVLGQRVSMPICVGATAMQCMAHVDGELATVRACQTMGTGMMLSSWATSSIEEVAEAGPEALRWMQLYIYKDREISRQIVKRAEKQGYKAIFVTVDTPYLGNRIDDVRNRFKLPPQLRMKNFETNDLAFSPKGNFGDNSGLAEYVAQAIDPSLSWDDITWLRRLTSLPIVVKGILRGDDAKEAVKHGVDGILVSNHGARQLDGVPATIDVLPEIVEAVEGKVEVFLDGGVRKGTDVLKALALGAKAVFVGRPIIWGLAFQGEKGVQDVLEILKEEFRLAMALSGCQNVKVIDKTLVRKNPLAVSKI
Experiment: In vitro inhibition of mouse glycolate oxidase (mGO), HRP-coupled Trinder reaction
Assay type: biochemical
Settings: compound tested at 100 μM; 40 mM glycolic acid as substrate; activity calculated at 1 minute
Method: Protein expression. BL21 (DE3) E. coli transformed with recombinant pET-15b expression vector containing mouse Hao1 cDNA with an N-terminal His6 tag was grown in LB medium in the presence of 0.1 mg/mL ampicillin. For purification of recombinant mGO expressed in BL21 E. coli, bacteria pellets were thawed and re-suspended in 2 mL lysis buffer (50 mM NaH2PO4, 300 mM NaCl, 10 mM imidazole, 50 μM flavin mononucleotide (FMN), pH 7.5), and then treated for 30 minutes with 1 mM phenylmethylsulfonyl fluoride (PMSF) for protease inhibition, 0.1% Triton X-100 and 0.2 mg/mL lysozyme to break cellular membranes. After sonication, cells were centrifuged and the supernatant containing the total cellular extract (pre-column fraction) was loaded into a Ni-NTA agarose column, and incubated for 30 minutes at 4° C. to allow binding. The column was washed with two bed volumes of lysis buffer with 20 mM imidazole to eliminate unbound proteins (wash fraction). mGO was eluted using the same buffer containing 300 mM imidazole. Fractions containing purified GO were dialyzed against 300 mL of dialysis buffer (50 mM NaH2PO4, 300 mM NaCl, pH 7.5) at 4° C. with agitation overnight, and then kept at 4° C. in darkness. Protein was quantified by the bicinchoninic acid (BCA) assay.
Inhibition assays. Enzymatic activity of mGO was determined in the presence of glycolate as substrate (40 mM glycolic acid) and phosphate buffer (50 mM KPO4, 0.1 mM EDTA, pH 7). The production of glyoxylate was indirectly measured by the quantification of hydrogen peroxide formed during the first oxidation reaction. This hydrogen peroxide reacted with 4.9 mM 4-aminoantipyrine and 0.1 mM sulphonated […] in a coupled horseradish peroxidase (HRP) reaction that yields a quinoneimine dye (FIG. 1) measured at 515 nm (Trinder reaction). Enzymatic activity was calculated at 1 minute after initiation of the Trinder reaction.

Row | Structure (SMILES) | inhibition at 100 µM [%]
1 | Cc1[nH]nc(C(=O)O)c1Nc1ccc(Cc2ccc(OCCOC3CNC3)cc2)cc1 [Compound 60, 4-((4-(4-(2-(azetidin-3-yloxy)ethoxy)benzyl)phenyl)amino)-5-methyl-1H-pyrazole-3-carboxylic Acid hydrochloride] | < 30
2 | O=C(O)c1nnsc1Nc1ccc(-n2cccn2)cc1 [Compound 20, 5-((4-(1H-Pyrazol-1-yl)phenyl)amino)-1,2,3-thiadiazole-4-carboxylic Acid] | > 60
3 | CCCC/C=C(/SC1=C(C(=O)O)NNC=C1)c1ccc(F)cc1 [Compound 78, (E)-4-((1-(4-Fluorophenyl)hex-1-en-1-yl)thio)-1,2-dihydropyridazine-3-carboxylic Acid] | < 30
4 | COc1ccc(CN(c2ccc(CCc3ccc(F)cc3)cc2)c2c(C(=O)O)n[nH]c2C)cc1 [Compound 67, 4-((4-(4-Fluorophenethyl)phenyl)(4-methoxybenzyl)amino)-3-methyl-1H-pyrazole-5-carboxylic Acid] | > 60
5 | Cc1[nH]nc(C(=O)O)c1Nc1ccc(-c2ccc(C#N)cc2)cc1 [Compound 39, 4-((4′-Cyano-[1,1′-biphenyl]-4-yl)amino)-5-methyl-H-pyrazole-3-carboxylic Acid] | 30 to 60
6 | Cc1snc(C(=O)O)c1Nc1cccc(Br)c1 [Compound 35, 4-((3-Bromophenyl)amino)-5-methylisothiazole-3-carboxylic Acid] | 30 to 60
7 | CCCCCC(Sc1c(C(=O)O)noc1C)c1ccc(F)cc1 (centres unmarked) [Compound 75, 4-((1-(4-fluorophenyl)hexyl)thio)-5-methylisoxazole-3-carboxylic Acid] | 30 to 60
8 | Cc1[nH]nc(C(=O)O)c1Nc1ccc(Br)cc1 [Compound 40, 4-((4-Bromophenyl)amino)-5-methyl-1H-pyrazole-3-carboxylic Acid] | < 30
9 | Cc1[nH]nc(C(=O)O)c1Nc1ccc(Cc2ccc(OCCCCN3CCOCC3)cc2)cc1 [Compound 65, 5-methyl-4-((4-(4-(4-morpholinobutoxy)benzyl)phenyl)amino)-1H-pyrazole-3-carboxylic Acid] | < 0
10 | O=C(O)c1nnsc1Cc1ccc(Oc2ccccc2)cc1 [Compound 18, 5-(4-Phenoxybenzyl)-1,2,3-thiadiazole-4-carboxylic Acid] | 30 to 60
11 | O=C(O)c1nnsc1Cc1ccc(F)cc1 [Compound 16, 5-(4-Fluorobenzyl)-1,2,3-thiadiazole-4-carboxylic Acid] | < 30
12 | O=C(O)c1nnsc1Nc1cccc(-c2ccccn2)c1 [Compound 52, 5-((3-(pyridin-2-yl)phenyl)amino)-1,2,3-thiadiazole-4-carboxylic Acid Na Salt] | > 60
13 | Cc1snc(C(=O)O)c1Cc1ccc(F)cc1 [Compound 13, 4-(4-Fluorobenzyl)-5-methylisothiazole-3-carboxylic Acid] | < 30
14 | Cc1onc(C(=O)O)c1NCc1ccc(F)cc1 [Compound 29, 4-((4-Fluorobenzyl)amino)-5-methylisoxazole-3-carboxylic Acid] | 30 to 60
15 | O=C(O)c1nnsc1Nc1ccc(Br)cc1 [Compound 24, 5-((4-Bromophenyl)amino)-1,2,3-thiadiazole-4-carboxylic Acid] | > 60
16 | Cc1snc(C(=O)O)c1Nc1ccc(Br)cc1 [Compound 34, 4-((4-Bromophenyl)amino)-5-methylisothiazole-3-carboxylic Acid] | 30 to 60
17 | Cc1onc(C(=O)O)c1Nc1ccc(CCc2ccc(F)cc2)cc1 [Compound 56, 4-((4-(4-fluorophenethyl)phenyl)amino)-5-methylisoxazole-3-carboxylic Acid] | 30 to 60
18 | CC(C)(C)OC(=O)N1CCC(CCOc2ccc(Cc3ccc(Nc4ccnnc4C(=O)O)cc3)cc2)CC1 [Compound 70, 4-((4-(4-(2-(1-(tert-Butoxycarbonyl)piperidin-4-yl)ethoxy)benzyl)phenyl)amino)pyridazine-3-carboxylic Acid] | > 60

Row | Structure (SMILES) | inhibition at 100 µM [%]
19 | Cc1onc(C(=O)O)c1Nc1ccc(Cc2ccc(F)cc2)cc1 [Compound 54, 4-((4-(4-fluorobenzyl)phenyl)amino)-5-methylisoxazole-3-carboxylic Acid] | < 30
20 | Cc1[nH]nc(C(=O)O)c1Nc1ccc(Cc2ccc(OCCN3CCNCC3)cc2)cc1 [Compound 64, 5-methyl-4-((4-(4-(2-(piperazin-1-yl)ethoxy)benzyl)phenyl)amino)-1H-pyrazole-3-carboxylic Acid hydrochloride] | < 30
21 | O=C(O)c1nnsc1Nc1cccc(Br)c1 [Compound 23, 5-((3-Bromophenyl)amino)-1,2,3-thiadiazole-4-carboxylic Acid] | > 60
22 | Cc1[nH]nc(C(=O)O)c1Nc1ccc(Cc2ccc(OCCOC3CN(C(=O)OC(C)(C)C)C3)cc2)cc1 [Compound 59, 4-((4-(4-(2-((1-(tert-butoxycarbonyl)azetidin-3-yl)oxy)ethoxy)benzyl)phenyl)amino)-5-methyl-1H-pyrazole-3-carboxylic Acid] | < 30
23 | Cc1snc(C(=O)O)c1Nc1ccc(-c2ccc(C#N)cc2)cc1 [Compound 33, 4-((4′-Cyano-[1,1′-biphenyl]-4-yl)amino)-5-methylisothiazole-3-carboxylic Acid] | > 60
24 | O=C(O)c1nnccc1Nc1ccc(Cc2ccc(OCCC3CCNCC3)cc2)cc1 [Compound 71, 4-((4-(4-(2-(Piperidin-4-yl)ethoxy)benzyl)phenyl)amino)-pyridazine-3-carboxylic Acid hydrochloride] | 30 to 60
25 | Cc1[nH]nc(C(=O)O)c1Cc1ccc(Oc2ccccc2)cc1 [Compound 10, 5-Methyl-4-(4-phenoxybenzyl)-1H-pyrazole-3-carboxylic Acid] | 30 to 60
26 | Cc1[nH]nc(C(=O)O)c1Nc1ccc(Cc2ccc(OCCC3CCN(C(=O)OC(C)(C)C)CC3)cc2)cc1 [Compound 61, 4-((4-(4-(2-(1-(tert-butoxycarbonyl)piperidin-4-yl)ethoxy)benzyl)phenyl)amino)-5-methyl-1H-pyrazole-3-carboxylic Acid] | > 60
27 | Cc1[nH]nc(C(=O)O)c1Cc1ccc(-c2ccc(C#N)cc2)cc1 [Compound 7, 4-((4′-Cyano-[1,1′-biphenyl]-4-yl)methyl)-5-methyl-H-pyrazole-3-carboxylic Acid] | 30 to 60
28 | Cc1[nH]nc(C(=O)O)c1Nc1ccc(Cc2ccc(OCCN3CCN(C(=O)OC(C)(C)C)CC3)cc2)cc1 [Compound 63, 4-((4-(4-(2-(4-(tert-butoxycarbonyl)piperazin-1-yl)ethoxy)benzyl)phenyl)amino)-5-methyl-1H-pyrazole-3-carboxylic Acid] | < 30
29 | Cc1n[nH]c(C(=O)O)c1N(Cc1ccc(F)cc1)Cc1ccc(F)cc1 [Compound 44, 4-(bis(4-Fluorobenzyl)amino)-3-methyl-1H-pyrazole-5-carboxylic Acid] | 30 to 60
30 | Cc1[nH]nc(C(=O)O)c1Nc1ccc(CCc2ccc(F)cc2)cc1 [Compound 66, 4-((4-(4-Fluorophenethyl)phenyl)amino)-3-methyl-1H-pyrazole-5-carboxylic Acid] | < 30
31 | COc1ccc(CNc2ccnnc2C(=O)O)c(OC)c1 [Compound 49, 4-((2,4-Dimethoxybenzyl)amino)pyridazine-3-carboxylic Acid Na Salt] | 30 to 60
32 | CCCCCC(Sc1ccnnc1C(=O)O)c1ccc(F)cc1 (centres unmarked) [Compound 77, 4-((1-(4-Fluorophenyl)hexyl)thio)pyridazine-3-carboxylic Acid] | 30 to 60
33 | COc1ccc(CN(c2ccc(-c3ccc(C#N)cc3)cc2)c2c(C(=O)O)n[nH]c2C)cc1 [Compound 57, 4-((4′-cyano-[1,1′-biphenyl]-4-yl)(4-methoxybenzyl)amino)-5-methyl-1H-pyrazole-3-carboxylic Acid] | 30 to 60
34 | CC(C)(C)OC(=O)N1CCN(CCOc2ccc(Cc3ccc(Nc4ccnnc4C(=O)O)cc3)cc2)CC1 [Compound 72 Na salt, 4-((4-(4-(2-(4-(tert-Butoxycarbonyl)piperazin-1-yl)ethoxy)-benzyl)phenyl)amino)pyridazine-3-carboxylic Acid Sodium Salt] | > 60
35 | Cc1[nH]nc(C(=O)O)c1Nc1ccc(C#N)cc1 [Compound 45, 4-((4-Cyanophenyl)amino)-5-methyl-1H-pyrazole-3-carboxylic Acid] | 30 to 60

— patent publication US20210171503A1, “GLYCOLATE OXIDASE INHIBITORS AND USE THEREOF” (ORFAN BIOTECH INC., priority 2017, published 2021)
